Reference: patent US20180057462A1, “Substituted 2-difluoromethyl-nicotin(thio)carboxanilide derivatives and their use as fungicides” (BAYER CROPSCIENCE AKTIENGESELLSCHAFT, priority 2015, published 2018)

assay: LogP by HPLC on reversed phase columns (EEC directive 79/831 Annex V.A8), method [a]; format: physicochemical; conditions: LC-UV, acidic range, 0.1% formic acid in water and acetonitrile as eluent (linear gradient 10% to 95% acetonitrile)

LogP[a] | SMILES
3.33 | Cc1c(NC(=O)c2cccnc2C(F)F)cccc1OC(C)c1ccccc1 (centres unmarked) [Example 89]
2.43 | Cc1c(COC(C)C)cccc1NC(=O)c1cccnc1C(F)F [Example 90]
3.33 | O=C(Nc1cccc(OC2CCCC2)c1C(F)(F)F)c1cccnc1C(F)F [Example 91]
3.55 | CCC(CC)Oc1cccc(NC(=O)c2cccnc2C(F)F)c1C(F)(F)F [Example 92]
3.92 | CCCC(CC)Oc1cccc(NC(=O)c2cccnc2C(F)F)c1C(F)(F)F (centres unmarked) [Example 93]
3.17 | CCC(C)Oc1cccc(NC(=O)c2cccnc2C(F)F)c1C(F)(F)F (centres unmarked) [Example 94]
3.44 | CCC(C)Oc1cccc(NC(=O)c2cc(C)cnc2C(F)F)c1C(F)(F)F (centres unmarked) [Example 95]
3.83 | CCC(C)Oc1cccc(NC(=O)c2ccc(Cl)nc2C(F)F)c1C(F)(F)F (centres unmarked) [Example 96]
3.46 | CC(C)Oc1cccc(NC(=O)c2ccc(Cl)nc2C(F)F)c1C(F)(F)F [Example 97]
3.04 | Cc1cnc(C(F)F)c(C(=O)Nc2cccc(OC(C)C)c2C(F)(F)F)c1 [Example 98]
2.80 | CC(C)Oc1cccc(NC(=O)c2cccnc2C(F)F)c1C(F)(F)F [Example 99]
3.13 | O=C(Nc1cccc(OCc2ccccc2)c1C(F)(F)F)c1cccnc1C(F)F [Example 100]
3.42 | CC(Oc1cccc(NC(=O)c2cccnc2C(F)F)c1C(F)(F)F)c1ccccc1 (centres unmarked) [Example 101]
3.69 | Cc1cnc(C(F)F)c(C(=O)Nc2cccc(OC(C)c3ccccc3)c2C(F)(F)F)c1 (centres unmarked) [Example 102]
4.03 | CC(Oc1cccc(NC(=O)c2ccc(Cl)nc2C(F)F)c1C(F)(F)F)c1ccccc1 (centres unmarked) [Example 103]
0.79 | Cc1c(NC(=O)c2cccnc2C(F)F)cccc1N1CCCC1 [Example 104]
2.21 | Cc1c(NC(=O)c2cccnc2C(F)F)cccc1S(=O)(=O)C1CCCC1 [Example 105]

LogP[a] | SMILES
2.86 | CCC(CC)Nc1cccc(NC(=O)c2cccnc2C(F)F)c1C [Example 106]
2.17 | Cc1c(NC(=O)c2cccnc2C(F)F)cccc1NC1CCCC1 [Example 107]
0.45 | Cc1c(NC(=O)c2cccnc2C(F)F)cccc1N(C)C [Example 108]
1.39 | Cc1c(NC(=O)c2cccnc2C(F)F)cccc1N(C)C1CCCC1 [Example 109]
3.19 | Cc1ccc(-c2cccc(NC(=O)c3cccnc3C(F)F)c2C)s1 [Example 111]
1.98 | Cc1nc(C)c(-c2cccc(NC(=O)c3cccnc3C(F)F)c2C)s1 [Example 112]
2.17 | Cc1c(NC(=O)c2cccnc2C(F)F)cccc1-c1cnn(C(C)C)c1 [Example 113]
2.94 | Cc1c(NC(=O)c2cccnc2C(F)F)cccc1-c1csc(C(C)C)n1 [Example 114]
4.41 | Cc1c(NC(=O)c2cccnc2C(F)F)cccc1OC(C)c1ccc(Cl)cc1Cl (centres unmarked) [Example 115]
4.31 | Cc1c(NC(=O)c2cccnc2C(F)F)cccc1C1CCCCC1(C)C (centres unmarked) [Example 116]
3.61 | Cc1c(NC(=O)c2cccnc2C(F)F)cccc1OC(C)(C)C(C)C [Example 117]
2.34 | CCOc1cccc(NC(=O)c2cccnc2C(F)F)c1C [Example 118]
2.55 | Cc1c(NC(=O)c2cccnc2C(F)F)cccc1OCC(F)(F)F [Example 119]
2.68 | Cc1c(NC(=O)c2cccnc2C(F)F)cccc1OCCC(F)(F)F [Example 120]
3.25 | Cc1c(NC(=O)c2cccnc2C(F)F)cccc1C1CCCC1 [Example 121]
2.43 | Cc1c(NC(=O)c2cccnc2C(F)F)cccc1C1CC1 [Example 122]
3.70 | Cc1c(NC(=O)c2c(C(F)F)ccnc2C(F)F)cccc1OC1CCCC1 [Example 123]

same assay, conditions: reversed phase HPLC column; LC-UV, acidic range, 0.1% formic acid in water and acetonitrile as eluent (linear gradient 10% to 95% acetonitrile)

chromatographic logP | SMILES
2.6 | Cc1c(NC(=O)c2cccnc2C(F)F)cccc1-c1cncc(C(F)(F)F)c1 [Example 110, 2-(difluoromethyl)-N-{2-methyl-3-[5-(trifluoromethyl)pyridin-3-yl]phenyl}nicotinamide]
